Literature values as cited in patent publication US7286970B2, “Computational model, method, and system for kinetically-tailoring multi-drug chemotherapy for individuals” (The Regents of the University of California, priority 2002, dated 2007).
Marks after values point to notes of the source that are not given here.

Details: for Plasma Half-life: in vivo

Structure (SMILES) | half-life | Plasma Half-life
O=c1[nH]cc(F)c(=O)[nH]1 [5-Fluorouracil, 5-fluorouracil] | about 15 min | 
O=P1(N(CCCl)CCCl)NCCCO1 (centres unmarked) [Cyclophosphamide, cyclophosphamide] |  | 4^d h
COc1cccc2c1C(=O)c1c(O)c3c(c(O)c1C2=O)C[C@@](O)(C(=O)CO)C[C@@H]3O[C@H]1C[C@H](N)[C@H](O)[C@H](C)O1 [Doxorubicin, doxorubicin] |  | 25^d h

Now from value to compound:

half-life | Plasma Half-life | Structure (SMILES)
 | 8^d h | CN(Cc1cnc2nc(N)nc(N)c2n1)c1ccc(C(=O)N[C@@H](CCC(=O)O)C(=O)O)cc1 [Methotrexate, methotrexate]
 | 10^e h | CC/C(=C(\c1ccccc1)c1ccc(OCCN(C)C)cc1)c1ccccc1 [Tamoxifen, tamoxifen]
